For ten compounds, Ki results are on record in ChEMBL document CHEMBL1157715, “Probes for narcotic receptor mediated phenomena. 40. N-substituted cis-4a-ethyl-1,2,3,4,4a,9a-hexahydrobenzofuro[2,3-c]pyridin-8-ols” (Bioorg Med Chem, 2010).

Broadly, the Ki is the dissociation constant of the complex between target and ligand, obtained from inhibition or displacement.

Molecules are shown by their SMILES. A value given as a limit tells only on which side of the number the result lay.

Format in all cases: cell-based
Experiment [1] concerns the target Kappa-type opioid receptor (Homo sapiens, UniProt P41145). Put plainly: Displacement of [3H]U69593 from kappa opioid receptor expressed in CHO cells. For orientation: Displacement assays read how much labelled ligand stays bound in the presence of the test substance.
The target in another experiment is Mu-type opioid receptor (Homo sapiens, UniProt P35372). Put plainly: Displacement of [3H]DAMGO from mu opioid receptor expressed in CHO cells.
The target in experiment [2] is Delta-type opioid receptor (Homo sapiens, UniProt P41143). Put plainly: Displacement of [3H]DADLE from delta opioid receptor expressed in CHO cells.
Sequence of Delta-type opioid receptor (P41143 whole entry): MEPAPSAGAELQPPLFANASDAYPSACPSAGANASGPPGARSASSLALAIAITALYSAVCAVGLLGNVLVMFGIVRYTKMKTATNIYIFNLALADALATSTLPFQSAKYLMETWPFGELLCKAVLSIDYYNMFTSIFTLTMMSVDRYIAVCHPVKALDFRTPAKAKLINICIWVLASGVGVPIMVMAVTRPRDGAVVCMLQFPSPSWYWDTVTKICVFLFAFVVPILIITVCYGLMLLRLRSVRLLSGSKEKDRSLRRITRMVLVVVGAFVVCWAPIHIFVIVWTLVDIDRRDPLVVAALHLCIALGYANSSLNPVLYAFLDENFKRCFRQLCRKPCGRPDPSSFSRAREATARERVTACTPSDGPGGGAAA

Sequence of Mu-type opioid receptor (P35372 whole entry): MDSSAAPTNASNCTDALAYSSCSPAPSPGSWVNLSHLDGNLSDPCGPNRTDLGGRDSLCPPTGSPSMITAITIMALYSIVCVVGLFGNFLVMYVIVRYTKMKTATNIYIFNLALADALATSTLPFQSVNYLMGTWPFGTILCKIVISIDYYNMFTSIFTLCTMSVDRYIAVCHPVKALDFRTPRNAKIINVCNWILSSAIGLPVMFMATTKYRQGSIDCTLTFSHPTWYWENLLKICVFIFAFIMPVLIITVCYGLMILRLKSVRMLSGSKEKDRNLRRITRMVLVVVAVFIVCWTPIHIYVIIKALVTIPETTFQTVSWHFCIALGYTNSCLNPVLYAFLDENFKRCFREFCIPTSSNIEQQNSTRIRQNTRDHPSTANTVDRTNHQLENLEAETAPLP
Sequence of Kappa-type opioid receptor (P41145 whole entry): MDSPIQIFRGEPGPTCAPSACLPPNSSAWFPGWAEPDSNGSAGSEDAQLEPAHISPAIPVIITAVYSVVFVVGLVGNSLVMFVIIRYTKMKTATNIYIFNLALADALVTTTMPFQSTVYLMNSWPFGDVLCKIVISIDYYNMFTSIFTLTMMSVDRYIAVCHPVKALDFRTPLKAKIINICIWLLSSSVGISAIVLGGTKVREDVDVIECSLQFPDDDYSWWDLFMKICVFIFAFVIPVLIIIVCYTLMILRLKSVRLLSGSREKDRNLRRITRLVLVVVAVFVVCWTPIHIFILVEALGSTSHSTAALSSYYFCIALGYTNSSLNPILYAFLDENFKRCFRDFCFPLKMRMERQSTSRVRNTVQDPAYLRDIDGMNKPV

`CC[C@@]12CCN(CCc3ccccc3)C[C@@H]1Oc1ccc(O)cc12`: the Ki in experiment [1] was determined as 88 nM; at Mu-type opioid receptor it was 0.7 nM; in experiment [2], 75 nM.
On to `CC[C@@]12CCN(CC3CC3)C[C@@H]1Oc1c(O)cccc12` (racemic), for which the Ki in experiment [1] is 10000 nM; at Mu-type opioid receptor it was 4670 nM; in experiment [2] it was 6150 nM.
Taken in the same sequence, the figures for `CC[C@@]12CCN(Cc3ccc(F)cc3)C[C@@H]1Oc1c(O)cccc12` (racemic) were 3380 nM, over 2700 nM and over 4500 nM.
For the compound `CN1CC[C@@]2(CCc3ccccc3)c3cccc(O)c3O[C@H]2C1` (racemic), the Ki in experiment [1] is 2880 nM; on Mu-type opioid receptor it was 740 nM; in experiment [2], over 4300 nM.
Regarding `Oc1ccc2c(c1)C1CCN(CC3CC3)CC1O2` (stereo unspecified), on Mu-type opioid receptor, the affinity corresponds to a Ki of 4 nM.
As to `CC[C@@]12CCN(C)C[C@@H]1Oc1c(O)cccc12` (racemic), the Ki in experiment [1] was over 10000 nM; at Mu-type opioid receptor it was 795 nM; in experiment [2], 7480 nM.
In the case of `CC[C@@]12CCN(CCc3ccc([N+](=O)[O-])cc3)C[C@@H]1Oc1c(O)cccc12` (racemic), the Ki in experiment [1] amounted to 720 nM; on Mu-type opioid receptor, 670 nM; in experiment [2], 2260 nM.
At Mu-type opioid receptor, `Oc1ccc2c(c1)C1CCN(CCc3ccccc3)CC1O2` (stereo unspecified) came in with a Ki of 0.9 nM.
Take `CC[C@@]12CCN(CCc3ccccc3)C[C@@H]1Oc1c(O)cccc12` (racemic): the Ki stood at 2220 nM in experiment [1], 1630 nM at Mu-type opioid receptor and 7210 nM in experiment [2].
For `CC[C@@]12CCN(CCc3ccc(F)cc3)C[C@@H]1Oc1c(O)cccc12` (racemic), the Ki was 935 nM in experiment [1], 354 nM at Mu-type opioid receptor and over 4500 nM in experiment [2].
